In ChEMBL document CHEMBL5518230, “Identification of a Novel Selective CDK9 Inhibitor for the Treatment of CRC: Design, Synthesis, and Biological Activity Evaluation” (J Med Chem, 2024):
Activity calls are given as the source filed them. The rule behind the calls is not given here.

Key:
[1] = target: CDK9/cyclin T1 (Homo sapiens) (UniProt O60563+P50750); experiment: Inhibition of CDK9/Cyclin T1 (unknown origin) using PDKtide substrate at 500 nM incubated for 60 mins by ADP-Glo kinase assay relative to control; assay type: protein-complex assay
CDK9/cyclin T1 = CDK9/cyclin T1 (Homo sapiens, UniProt P50750); experiment: Inhibition of CDK9/Cyclin T1 (unknown origin) using PDKtide substrate incubated for 60 mins by ADP-Glo kinase assay; assay type: protein-complex assay
Sequence of CDK9/cyclin T1 (O60563 whole entry): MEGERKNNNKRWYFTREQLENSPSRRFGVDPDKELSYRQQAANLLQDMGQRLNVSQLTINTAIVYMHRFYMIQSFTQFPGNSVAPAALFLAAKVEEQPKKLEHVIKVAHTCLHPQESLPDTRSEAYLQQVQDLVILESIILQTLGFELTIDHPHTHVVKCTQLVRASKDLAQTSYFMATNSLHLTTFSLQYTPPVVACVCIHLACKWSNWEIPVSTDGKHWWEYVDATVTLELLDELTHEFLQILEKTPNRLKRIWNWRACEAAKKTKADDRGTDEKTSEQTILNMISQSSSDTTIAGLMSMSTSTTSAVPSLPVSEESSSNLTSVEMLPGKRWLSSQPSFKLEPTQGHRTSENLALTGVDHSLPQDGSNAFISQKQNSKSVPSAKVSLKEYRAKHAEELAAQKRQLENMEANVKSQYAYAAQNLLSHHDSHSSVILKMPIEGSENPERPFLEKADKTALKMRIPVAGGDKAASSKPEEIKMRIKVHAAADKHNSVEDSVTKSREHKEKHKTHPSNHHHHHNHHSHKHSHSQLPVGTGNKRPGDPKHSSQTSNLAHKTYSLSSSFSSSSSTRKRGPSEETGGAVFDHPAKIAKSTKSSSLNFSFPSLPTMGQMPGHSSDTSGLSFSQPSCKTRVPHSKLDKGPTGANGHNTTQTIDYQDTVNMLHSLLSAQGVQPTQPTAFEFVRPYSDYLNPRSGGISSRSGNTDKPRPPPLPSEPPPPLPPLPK
Sequence of CDK9/cyclin T1 (P50750 whole entry): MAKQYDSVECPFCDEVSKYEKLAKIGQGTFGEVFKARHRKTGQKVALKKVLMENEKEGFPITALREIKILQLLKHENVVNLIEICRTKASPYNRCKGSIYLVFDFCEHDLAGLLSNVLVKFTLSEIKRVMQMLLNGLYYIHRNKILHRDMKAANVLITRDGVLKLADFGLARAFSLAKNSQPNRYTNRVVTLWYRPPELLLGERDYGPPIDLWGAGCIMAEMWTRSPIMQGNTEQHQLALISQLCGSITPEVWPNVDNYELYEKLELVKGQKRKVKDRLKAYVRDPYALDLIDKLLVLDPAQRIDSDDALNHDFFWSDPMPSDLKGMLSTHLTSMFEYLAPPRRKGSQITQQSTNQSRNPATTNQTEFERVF

HCT-116 [2] = experiment: Growth inhibition of human HCT-116 cells incubated for 48 hrs by CCK-8 assay; assay type: functional
HT-29 = experiment: Growth inhibition of human HT-29 cells incubated for 48 hrs by CCK-8 assay; assay type: functional
HCT-116 [3] = experiment: Antitumor activity against human HCT-116 cells xenografted in BALB/c mouse assessed as tumor growth inhibition at 50 mg/kg,po administrated once daily for 3 weeks; assay type: functional, organism-based
HCT-116 [4] = experiment: Inhibition of colony formation in human HCT-116 cells assessed as reduction in colony number incubated for 14 days by crystal violet staining assay; assay type: functional, cell-based; conditions: time 14.0 day

inhibition [1]	IC50 (CDK9/cyclin T1)	GI50 (HCT-116 [2])	GI50 (HT-29)	Structure (SMILES)	other results
41.7%	–	–	–	COc1cc(C(=O)N2CCOCC2)ccc1Nc1cc(-c2ccc3nnn(C(C)C)c3c2)ccn1	–
–	3.92 nM	60 nM	510 nM	CCN1CCN(C(=O)c2ccnc(Nc3cc(-c4ccc5nnn(C(C)C)c5c4)ccn3)c2)CC1	–
–	3.06 nM	70 nM	650 nM	CC(C)n1nnc2ccc(-c3ccnc(Nc4cc(C(=O)N5CCOCC5)ccn4)c3)cc21	–
41.1%	–	–	–	O=C(c1ccc(Nc2cc(-c3ccc4nnn(C5CCCCC5)c4c3)ccn2)c(F)c1)N1CCOCC1	–
28.1%	–	–	–	COc1cc(C(=O)N2CCOCC2)ccc1Nc1cc(-c2ccc3nnn(C(C)(C)C)c3c2)ccn1	–
16.3%	–	–	–	COc1cc(C(=O)N2CCOCC2)ccc1Nc1cc(-c2ccc3nnn(C4CCCCC4)c3c2)ccn1	–
73.5%	–	–	–	CC(C)(C)n1nnc2ccc(-c3ccnc(Nc4ccc(C(=O)N5CCOCC5)cc4)c3)cc21	–
–	–	450 nM	960 nM	Cc1ncc(-c2ccnc(Nc3ccc(S(C)(=O)=O)cc3)n2)n1C(C)C [AZD-5438]	Activity (HCT-116 [3]): Active; inhibition (HCT-116 [4]): Dose-Dependent Effect
–	1.94 nM	520 nM	> 2000 nM	CC(C)n1nnc2ccc(-c3ccnc(Nc4cc(C(=O)N5CCNC(=O)C5)ccn4)c3)cc21	–
99.7%	9.92 nM	–	–	O=C(c1ccc(Nc2cc(-c3ccc4nnn(C5CCCC5)c4c3)ccn2)nc1)N1CCOCC1	–
47.1%	–	–	–	O=C(c1ccc(Nc2cc(-c3ccc4nnn(C5CCCC5)c4c3)ccn2)c(C(F)(F)F)c1)N1CCOCC1	–
–	3.44 nM	80 nM	770 nM	CC(C)n1nnc2ccc(-c3ccnc(Nc4cc(C(=O)N5CCN(C)CC5)ccn4)c3)cc21	–
83%	–	–	–	CC(C)n1nnc2ccc(-c3ccnc(Nc4ccc(C(=O)N5CCOCC5)cc4)c3)cc21	–
65.3%	–	–	–	CC(C)n1nnc2ccc(-c3ccnc(Nc4ccc(C(=O)N5CCOCC5)cc4F)c3)cc21	–
50.3%	–	–	–	CC(C)(C)n1nnc2ccc(-c3ccnc(Nc4ccc(C(=O)N5CCOCC5)cc4F)c3)cc21	–
–	4.39 nM	250 nM	230 nM	CC(C)n1nnc2ccc(-c3ccnc(Nc4ccc(C(=O)N5CCN(C)CC5)cn4)c3)cc21	–
81.2%	–	–	–	O=C(c1ccc(Nc2cc(-c3ccc4nnn(C5CCCC5)c4c3)ccn2)cc1)N1CCOCC1	–
